Series [1] addresses T1, AXL (Homo sapiens, UniProt P30530).
T1 construct: made in house; host or cells: Sf9 insect cells (baculovirus)
T1 sequence (P30530 26-894): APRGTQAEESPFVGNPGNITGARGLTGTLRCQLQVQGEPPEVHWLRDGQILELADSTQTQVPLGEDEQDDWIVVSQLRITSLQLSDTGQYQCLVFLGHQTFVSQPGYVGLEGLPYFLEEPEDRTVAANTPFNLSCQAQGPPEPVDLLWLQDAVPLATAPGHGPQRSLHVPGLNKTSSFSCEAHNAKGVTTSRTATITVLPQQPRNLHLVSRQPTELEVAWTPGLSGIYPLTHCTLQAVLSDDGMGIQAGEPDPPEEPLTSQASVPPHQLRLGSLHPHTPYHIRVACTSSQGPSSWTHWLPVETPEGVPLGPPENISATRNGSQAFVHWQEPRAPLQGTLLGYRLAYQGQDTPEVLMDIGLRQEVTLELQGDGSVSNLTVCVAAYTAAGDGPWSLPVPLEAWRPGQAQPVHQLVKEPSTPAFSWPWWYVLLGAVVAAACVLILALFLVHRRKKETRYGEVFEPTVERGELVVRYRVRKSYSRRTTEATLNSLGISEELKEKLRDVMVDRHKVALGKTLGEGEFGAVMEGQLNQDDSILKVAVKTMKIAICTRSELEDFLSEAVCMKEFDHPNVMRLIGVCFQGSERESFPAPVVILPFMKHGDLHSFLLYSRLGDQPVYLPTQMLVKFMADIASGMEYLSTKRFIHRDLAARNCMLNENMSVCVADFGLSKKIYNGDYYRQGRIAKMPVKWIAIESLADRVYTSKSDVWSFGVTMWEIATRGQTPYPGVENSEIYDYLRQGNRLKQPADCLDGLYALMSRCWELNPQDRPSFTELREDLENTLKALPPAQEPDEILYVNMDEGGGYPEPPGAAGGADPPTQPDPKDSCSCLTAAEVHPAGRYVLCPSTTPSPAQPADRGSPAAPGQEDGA
Kind of series: 33PanQinase Activity Assay, AXL. As to conditions: recombinant human protein kinase, 1 μM [γ-33P]-ATP, 30° C. 80 minutes. It counts as biochemical. How it is done: (§1) The effect of the thioether derivatives 8a-v and 9a-i was tested on recombinant, human protein kinases. All protein kinases were expressed in Sf9 insect cells as human recombinant GST-fusion proteins or as His-tagged proteins by means of the baculovirus expression system. Protein kinases were purified by affinity chromatography using either GSH-agarose or Ni-NTH-agarose. The purity and identity of each was checked by SDS-PAGE/silver staining and by western blot analysis with specific antibodies.
(§2) A proprietary protein kinase assay (^33PanQinase® Activity Assay) was used for measuring the kinase activity. All kinase assays were performed in 96-well FlashPlates™ in a 50 μl reaction volume. The assay for all enzymes contained 60 mM HEPES-NaOH, pH 7.5, 3 mM MgCl2, 3 mM MnCl2, 3 μM Na-orthovanadate, 1.2 mM DTT, 50 μg/ml PEG20000 and 1 μM [γ-^33P]-ATP (approx. 5×10^5 cpm per well).
(§3) The reaction cocktails were incubated at 30° C. for 80 minutes. The reaction was stopped with 50 μl of 2% (v/v) H3PO4, plates were aspirated and washed two times with 200 μl of 0.9% (w/v) NaCl. Incorporation of ^33Pi was determined with a microplate scintillation counter. All assays were performed with a BeckmanCoulter/Sagian robotic system.

For series [2], the target named is T2, ALK (Homo sapiens, UniProt Q9UM73).
T2 construct: made in house; host or cells: Sf9 insect cells (baculovirus)
Kind of series: 33PanQinase Activity Assay, ALK. It counts as biochemical. The conditions noted are these: recombinant human protein kinase, 1 μM [γ-33P]-ATP, 30° C. 80 minutes. How it is done: as §1, §2, §3

Series [3] addresses T3, FAK (Homo sapiens, UniProt Q05397).
T3 construct: made in house; host or cells: Sf9 insect cells (baculovirus)
Description: 33PanQinase Activity Assay, FAK. It counts as biochemical. The conditions noted are these: recombinant human protein kinase, 1 μM [γ-33P]-ATP, 30° C. 80 minutes. How it is done: as §1, §2, §3

The target of series [4] is T4, SRC (Homo sapiens, UniProt P12931).
T4 construct: made in house; host or cells: Sf9 insect cells (baculovirus)
Description: 33PanQinase Activity Assay, SRC. It counts as biochemical. As to conditions: recombinant human protein kinase, 1 μM [γ-33P]-ATP, 30° C. 80 minutes. The procedure: as §1, §2, §3

Series [5] concerns the target T5, KIT wt (Homo sapiens, UniProt P10721).
T5 construct: made in house; host or cells: Sf9 insect cells (baculovirus)
Kind of series: 33PanQinase Activity Assay, KIT wt. As to conditions: recombinant human protein kinase, 1 μM [γ-33P]-ATP, 30° C. 80 minutes. It is filed as biochemical. The procedure: as §1, §2, §3

Some results are limits rather than exact numbers.

A word on the IC50: it is the concentration that gives 50% inhibition. Broadly, the melting point is the temperature, or range, at which the solid turns liquid.

T5 sequence (P10721 26-976): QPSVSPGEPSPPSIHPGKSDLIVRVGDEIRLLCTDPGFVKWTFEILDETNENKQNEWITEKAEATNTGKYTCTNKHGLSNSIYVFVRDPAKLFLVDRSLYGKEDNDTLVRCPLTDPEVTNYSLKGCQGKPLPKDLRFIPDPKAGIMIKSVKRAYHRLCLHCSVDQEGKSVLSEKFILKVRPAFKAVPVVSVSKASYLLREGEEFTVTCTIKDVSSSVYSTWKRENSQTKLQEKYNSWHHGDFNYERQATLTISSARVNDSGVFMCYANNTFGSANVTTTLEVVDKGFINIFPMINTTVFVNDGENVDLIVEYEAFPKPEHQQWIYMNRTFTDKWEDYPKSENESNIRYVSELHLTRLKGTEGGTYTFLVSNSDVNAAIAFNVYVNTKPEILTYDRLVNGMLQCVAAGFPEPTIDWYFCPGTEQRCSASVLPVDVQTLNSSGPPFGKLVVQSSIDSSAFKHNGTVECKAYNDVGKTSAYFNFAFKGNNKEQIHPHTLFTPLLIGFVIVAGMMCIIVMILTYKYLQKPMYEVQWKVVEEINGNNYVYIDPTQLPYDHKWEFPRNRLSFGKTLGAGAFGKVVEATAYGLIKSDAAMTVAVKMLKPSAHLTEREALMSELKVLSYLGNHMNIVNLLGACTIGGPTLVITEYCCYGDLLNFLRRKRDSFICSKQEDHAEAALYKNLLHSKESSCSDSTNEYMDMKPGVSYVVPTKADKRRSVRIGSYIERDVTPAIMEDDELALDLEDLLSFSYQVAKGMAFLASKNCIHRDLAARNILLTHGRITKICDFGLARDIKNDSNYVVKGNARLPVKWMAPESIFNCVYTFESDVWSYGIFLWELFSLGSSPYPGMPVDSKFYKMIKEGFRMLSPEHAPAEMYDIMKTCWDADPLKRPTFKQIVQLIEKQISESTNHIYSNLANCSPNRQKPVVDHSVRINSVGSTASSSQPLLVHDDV
T4 sequence (P12931 whole entry): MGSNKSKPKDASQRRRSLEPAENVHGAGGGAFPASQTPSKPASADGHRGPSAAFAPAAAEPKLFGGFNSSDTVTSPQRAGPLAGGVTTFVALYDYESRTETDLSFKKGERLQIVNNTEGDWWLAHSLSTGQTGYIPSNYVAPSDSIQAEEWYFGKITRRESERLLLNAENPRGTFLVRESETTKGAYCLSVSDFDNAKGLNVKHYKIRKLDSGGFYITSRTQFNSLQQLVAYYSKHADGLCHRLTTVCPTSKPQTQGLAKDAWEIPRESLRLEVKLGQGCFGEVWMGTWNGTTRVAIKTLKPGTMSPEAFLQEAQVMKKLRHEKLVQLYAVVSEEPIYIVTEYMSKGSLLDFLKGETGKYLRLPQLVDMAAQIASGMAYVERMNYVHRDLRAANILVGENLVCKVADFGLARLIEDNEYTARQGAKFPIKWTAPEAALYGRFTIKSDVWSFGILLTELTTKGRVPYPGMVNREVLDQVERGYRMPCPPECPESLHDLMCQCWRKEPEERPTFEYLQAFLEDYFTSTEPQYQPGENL
T3 sequence (Q05397 whole entry): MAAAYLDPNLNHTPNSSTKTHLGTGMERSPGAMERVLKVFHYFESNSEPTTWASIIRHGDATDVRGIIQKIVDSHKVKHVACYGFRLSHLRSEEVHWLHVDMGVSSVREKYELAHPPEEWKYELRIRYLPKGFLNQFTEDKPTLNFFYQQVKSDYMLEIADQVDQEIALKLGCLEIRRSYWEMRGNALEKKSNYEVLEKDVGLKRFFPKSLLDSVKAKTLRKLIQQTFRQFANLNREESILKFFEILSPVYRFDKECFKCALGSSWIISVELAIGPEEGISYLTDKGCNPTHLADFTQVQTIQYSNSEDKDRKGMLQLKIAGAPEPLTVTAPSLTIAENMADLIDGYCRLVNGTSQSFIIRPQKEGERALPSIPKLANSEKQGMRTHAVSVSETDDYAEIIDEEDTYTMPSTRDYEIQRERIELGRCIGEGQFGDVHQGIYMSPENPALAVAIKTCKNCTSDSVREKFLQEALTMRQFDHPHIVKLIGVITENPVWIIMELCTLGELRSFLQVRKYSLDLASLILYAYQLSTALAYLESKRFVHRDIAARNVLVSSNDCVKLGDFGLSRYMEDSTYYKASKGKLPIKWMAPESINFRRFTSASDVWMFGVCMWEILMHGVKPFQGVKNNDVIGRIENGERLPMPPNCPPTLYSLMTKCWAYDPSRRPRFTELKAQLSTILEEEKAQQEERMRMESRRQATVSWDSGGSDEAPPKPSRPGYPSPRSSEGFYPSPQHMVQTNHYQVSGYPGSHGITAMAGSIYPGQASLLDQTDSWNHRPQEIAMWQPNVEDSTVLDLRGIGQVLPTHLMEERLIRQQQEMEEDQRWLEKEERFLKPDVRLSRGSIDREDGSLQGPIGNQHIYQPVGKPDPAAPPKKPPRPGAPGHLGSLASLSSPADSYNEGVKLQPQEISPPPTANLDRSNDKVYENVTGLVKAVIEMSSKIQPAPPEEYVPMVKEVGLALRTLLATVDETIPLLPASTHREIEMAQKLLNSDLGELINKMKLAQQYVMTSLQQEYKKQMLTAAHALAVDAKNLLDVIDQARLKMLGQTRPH
T2 sequence (Q9UM73 19-1620): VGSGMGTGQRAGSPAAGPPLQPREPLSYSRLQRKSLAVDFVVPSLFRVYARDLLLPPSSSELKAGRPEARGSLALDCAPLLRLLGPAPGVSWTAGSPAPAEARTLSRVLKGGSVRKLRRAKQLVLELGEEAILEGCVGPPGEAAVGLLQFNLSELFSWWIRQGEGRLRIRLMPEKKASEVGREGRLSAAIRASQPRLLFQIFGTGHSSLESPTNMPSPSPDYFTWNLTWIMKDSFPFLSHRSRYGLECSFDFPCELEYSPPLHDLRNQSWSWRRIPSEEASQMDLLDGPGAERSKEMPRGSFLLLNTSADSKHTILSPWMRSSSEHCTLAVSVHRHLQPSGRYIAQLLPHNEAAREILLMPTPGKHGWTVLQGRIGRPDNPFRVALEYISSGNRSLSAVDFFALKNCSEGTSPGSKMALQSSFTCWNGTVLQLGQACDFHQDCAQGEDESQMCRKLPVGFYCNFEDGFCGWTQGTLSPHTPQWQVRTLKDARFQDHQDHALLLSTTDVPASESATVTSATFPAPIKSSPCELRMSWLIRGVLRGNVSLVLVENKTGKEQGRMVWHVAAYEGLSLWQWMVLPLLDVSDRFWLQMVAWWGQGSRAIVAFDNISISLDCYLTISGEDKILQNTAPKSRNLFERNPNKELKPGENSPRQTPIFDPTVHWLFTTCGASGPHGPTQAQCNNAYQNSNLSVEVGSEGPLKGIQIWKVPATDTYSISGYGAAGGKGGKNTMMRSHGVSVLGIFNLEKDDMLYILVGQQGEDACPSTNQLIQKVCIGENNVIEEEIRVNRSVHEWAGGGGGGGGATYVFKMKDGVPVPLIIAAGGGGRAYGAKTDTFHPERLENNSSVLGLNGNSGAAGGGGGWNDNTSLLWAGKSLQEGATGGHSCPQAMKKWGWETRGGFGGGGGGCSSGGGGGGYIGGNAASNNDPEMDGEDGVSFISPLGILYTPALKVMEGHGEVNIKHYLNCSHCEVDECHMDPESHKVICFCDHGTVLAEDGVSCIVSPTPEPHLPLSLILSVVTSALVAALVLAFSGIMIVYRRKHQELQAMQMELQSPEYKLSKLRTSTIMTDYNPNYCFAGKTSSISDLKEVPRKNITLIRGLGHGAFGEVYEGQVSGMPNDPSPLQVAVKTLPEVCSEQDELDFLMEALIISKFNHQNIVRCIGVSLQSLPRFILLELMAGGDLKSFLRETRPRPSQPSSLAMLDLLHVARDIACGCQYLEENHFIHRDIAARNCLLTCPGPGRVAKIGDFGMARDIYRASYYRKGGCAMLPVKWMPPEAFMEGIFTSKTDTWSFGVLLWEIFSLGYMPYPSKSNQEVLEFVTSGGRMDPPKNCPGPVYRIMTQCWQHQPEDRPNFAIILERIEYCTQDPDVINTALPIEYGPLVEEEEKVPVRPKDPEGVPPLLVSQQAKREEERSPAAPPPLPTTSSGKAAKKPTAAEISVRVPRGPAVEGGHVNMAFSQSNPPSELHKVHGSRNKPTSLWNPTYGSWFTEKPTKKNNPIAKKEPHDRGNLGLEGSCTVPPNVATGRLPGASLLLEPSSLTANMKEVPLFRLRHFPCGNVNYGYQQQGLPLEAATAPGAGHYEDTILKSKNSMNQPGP

`c1ccc(Cc2nnc(Sc3ncnc4[nH]c(-c5ccccc5)nc34)o2)cc1` [Compound 8t, 2-Benzyl-5-[(8-phenyl-9H-purin-6-yl)thio]-1,3,4-oxadiazole] yielded a melting point of 198 to 199 °C. Moreover, the IC50 in series [1] was greater than 100 µM. Moreover, the concentration for half-maximal inhibition (IC50) in series [2] is 76 µM. For the same molecule, the concentration for half-maximal inhibition (IC50) in series [3] amounted to 43 µM. Further, in series [4], the half-maximal inhibitory concentration (IC50) came to 32 µM.
Turning to `Cc1nnc(Sc2ncnc3cc(-c4ccc(Cl)cc4)sc23)s1` [Compound 9i], the IC50 is 41.7 µM in series [1], 1.25 µM in series [5], 15 µM in series [2] and greater than 100 µM in series [3].
For `Fc1ccc(-c2cc3ncnc(Sc4nnc(CN5CCCC5)o4)c3s2)cc1` [Compound 9b], in that order: 6.09 µM, 6.48 µM, 3.03 µM and 15 µM.
Take `COc1ccc(-c2cc3ncnc(Sc4nnc(-c5ccc(Cl)cc5)o4)c3s2)cc1` [Compound 8n, 2-(4-Chlorophenyl)-5-{[6-(4-methoxyphenyl)thieno[3,2-d]pyrimidin-4-yl]thio}-1,3,4-oxadiazole]: the melting point is 221 to 223 °C. Also, in series [1], the IC50 worked out at 2.7 µM. Also, the IC50 in series [2] worked out at 1 µM. The IC50 in series [3] turned out to be 1.4 µM. In addition, in series [4], the IC50 came out at 0.55 µM.
For `c1ccc(-c2nc3c(Sc4nnc(-c5ccco5)o4)ncnc3[nH]2)cc1` [Compound 8u, 2-(Furan-2-yl)-5-[(8-phenyl-9H-purin-6-yl)thio]-1,3,4-oxadiazole], the melting point lay within 224 to 225 °C. Further, the IC50 in series [1] came to 40 µM. In addition, in series [2], the half-inhibitory concentration (IC50) amounted to 22 µM. In series [3], the concentration for half-maximal inhibition (IC50) turned out to be 23 µM. Also, the IC50 in series [4] worked out at 11 µM.
Take `Cn1nnnc1Sc1ncnc2cc(-c3ccc(F)cc3)sc12` [Compound 9d]: the IC50 amounted to 28.9 µM in series [1], 2.41 µM in series [5], 13.6 µM in series [2] and 13.6 µM in series [3].
As to `CN(C)Cc1nnc(Sc2ncnc3cc(-c4ccc(F)cc4)sc23)o1` [Compound 8c, 1-{5-[(6-{4-Fluorophenyl}thieno[3,2-d]pyrimidin-4-yl)thio]-1,3,4-oxadiazol-2-yl}-N,N-dimethylmethanamine], the melting point is 170 to 172 °C. In addition, the 50% inhibitory concentration (IC50) in series [1] was 12.3 µM. In addition, the IC50 in series [5] was found to be 2.76 µM. Besides, the IC50 in series [2] is 6.54 µM.
For `Fc1ccc(-c2cc3ncnc(Sc4nnc(-c5ccccc5)o4)c3s2)cc1` [Compound 8a, 2-{[6-(4-Fluorophenyl)thieno[3,2-d]pyrimidin-4-yl]thio}-5-phenyl-1,3,4-oxadiazole], the melting point is 223 °C. The IC50 in series [1] was 3.16 µM. Besides, the IC50 in series [5] was determined as 1.04 µM. The IC50 in series [2] was determined as 0.987 µM.
As for `COCCNc1nnc(Sc2ncnc3cc(-c4ccc(OC)cc4)sc23)s1` [Compound 9f], the IC50 in series [1] amounted to 5.2 µM; in series [5], 0.804 µM; in series [2] it was 3.51 µM; in series [3] it was 16.7 µM.
For the molecule `COc1ccc(-c2cc3nc(N)nc(Sc4nnc(-c5ccc(Cl)cc5)o4)c3s2)cc1` [Compound 8r, 4-{[5-(4-Chlorophenyl)-1,3,4-oxadiazol-2-yl]thio}-6-(4-methoxyphenyl)thieno[3,2-d]pyrimidin-2-amine], the melting point lay within 206 to 208 °C. Also, the IC50 in series [1] is 1.2 µM. Further, the IC50 in series [2] came out at 0.73 µM. For the same molecule, the IC50 in series [3] came to 0.9 µM. For the same molecule, the IC50 in series [4] stood at 0.65 µM.
As for `COc1ccc(-c2cc3ncnc(Sc4nnnn4C)c3s2)cc1` [Compound 9g], the IC50 in series [1] came to 5.8 µM; in series [5] it was 1.02 µM; in series [2] it was 2.37 µM; in series [3] it was 5.99 µM.
Taken in the same sequence, the figures for `Fc1ccc(-c2cc3ncnc(Sc4nnc(-c5ccc6c(c5)OCO6)o4)c3s2)cc1` [Compound 9c] were 6.56 µM, 4.92 µM, 0.935 µM and 3.52 µM.
Taken in the same sequence, the figures for `COc1ccc(-c2cc3ncnc(Sc4n[nH]/c(=N\C5CC5)s4)c3s2)cc1` [Compound 9h] were 10.1 µM, 0.873 µM, 2.72 µM and 10.5 µM.
Regarding `O=C1CCCCCN1Cc1nnc(Sc2ncnc3cc(-c4ccc(Cl)cc4)sc23)o1` [Compound 9a], the IC50 in series [1] was 1.63 µM; in series [5], 0.608 µM; in series [2] it was 2.16 µM; in series [3], 8.93 µM.
Take `Fc1ccc(-c2cc3ncnc(Sc4nnc(-c5ccncc5)o4)c3s2)cc1` [Compound 8b, 2-{[6-(4-Fluorophenyl)thieno[3,2-d]pyrimidin-4-yl]thio}-5-(pyridin-4-yl)-1,3,4-oxadiazole]: the melting point came to 232 °C. Also, the IC50 in series [1] came out at 2.64 µM. Moreover, the concentration for half-maximal inhibition (IC50) in series [5] was 1.74 µM. Also, the IC50 in series [2] stood at 2.94 µM.
`c1ccc(-c2nc3c(Sc4nnc(-c5ccncc5)o4)ncnc3[nH]2)cc1` [Compound 8s, 2-[(8-Phenyl-9H-purin-6-yl)thio]-5-(pyridin-4-yl)-1,3,4-oxadiazole] had a melting point of 250 to 251 °C. The IC50 in series [1] is 24 µM. Besides, in series [2], the IC50 amounted to 27 µM. Also, the IC50 in series [3] stood at 26 µM. The IC50 in series [4] was 19 µM.
Taken in the same sequence, the figures for `COc1ccc(-c2cc3ncnc(Sc4nnc(-c5ccc(C(F)(F)F)cc5)o4)c3s2)cc1` [Compound 8o, 2-{[6-(4-Methoxyphenyl)thieno[3,2-d]pyrimidin-4-yl]thio}-5-[4-(trifluoro-methyl)phenyl]-1,3,4-oxadiazole] were 227 to 228 °C, 2.4 µM, 0.88 µM, 1.7 µM and 0.84 µM.
Taken in the same sequence, the figures for `COc1ccc(-c2cc3ncnc(Sc4nnc(-c5ccc(Cl)cc5Cl)o4)c3s2)cc1` [Compound 8q, 2-(2,4-Dichlorophenyl)-5-{[6-(4-methoxyphenyl)thieno[3,2-d]pyrimidin-4-yl]thio}-1,3,4-oxadiazole] were 213 to 215 °C, 2.2 µM, 1.3 µM, 1.5 µM and 0.8 µM.
As to `COc1ccc(-c2cc3ncnc(Sc4nnnn4C4CC4)c3s2)cc1` [Compound 9e], the IC50 in series [1] came to 9.76 µM; in series [5], 1.3 µM; in series [2], 2.76 µM; in series [3], 7.89 µM.
Turning to `Fc1ccc(-c2cc3ncnc(Sc4nnc(CN5CCOCC5)o4)c3s2)cc1` [Compound 8d, 4-{[5-({6-[4-Fluorophenyl]thieno[3,2-d]pyrimidin-4-yl}thio)-1,3,4-oxadiazol-2-yl]methyl}morpholine], the IC50 in series [1] was 7.66 µM; in series [5], 3.85 µM; in series [2] it was 5.59 µM.
Regarding `COc1ccc(-c2cc3ncnc(Sc4nnc(-c5ccccc5C)o4)c3s2)cc1` [Compound 8p, 2-{[6-(4-methoxyphenyl)thieno[3,2-d]pyrimidin-4-yl]thio}-5-(o-tolyl)-1,3,4-oxadiazole], the melting point lay in the range of 184 to 186 °C. Further, the IC50 in series [1] turned out to be 1.9 µM. Moreover, the IC50 in series [2] came to 0.92 µM. Besides, the IC50 in series [3] came out at 1.3 µM. For the same molecule, in series [4], the IC50 worked out at 0.68 µM.
Turning to `COc1ccc(-c2cc3ncnc(Sc4nnc(-c5ccccc5)o4)c3s2)cc1` [Compound 8m, 2-{[6-(4-Methoxyphenyl)thieno[3,2-d]pyrimidin-4-yl]thio}-5-phenyl-1,3,4-oxadiazole], the melting point fell in the range of 213 to 215 °C. For the same molecule, the IC50 in series [1] came out at 0.94 µM. For the same molecule, in series [2], the IC50 is 0.97 µM. For the same molecule, in series [3], the IC50 worked out at 0.83 µM. For the same molecule, the half-maximal inhibitory concentration (IC50) in series [4] was 0.032 µM.

The values are drawn from patent publication US9925193B2, “Thioether derivatives as protein kinase inhibitors” (KTB TUMORFORSCHUNGSGESELLSCHAFT MBH, priority 2012, dated 2018).
